From US20150119360A1, “COMPOSITION FOR PROMOTING BIFIDOBACTERIA GROWTH” (Kyoto University, priority 2012, published 2015)

What was measured:
Assay in all cases: Growth-promoting (prebiotic) effect, OD600 after 24 hr anaerobic culture in GAM bouillon
Type in all cases: cell-based
[1] = system: Bifidobacterium longum subsp. Longum NCC2705 strain; settings: B. longum subsp. Longum NCC2705, 0.5 (w/v) % oligosaccharide, 37° C.
Procedure: (§1) The microorganisms were purchased from independent administrative agency RIKEN Tsukuba Laboratory BioResource Center (3-1-1 Koyadai, Tsukuba, Ibaraki 305-0074, Japan). As Bifidobacterium longum subsp. longum NCC2705, the strain preserved under GenBank accession number NC004307 was used.
(§2) Glycerol stock of each strain shown in Table 1 was plated in GAM bouillon (manufactured by Nissui Pharmaceutical Co., Ltd.) agar medium, and cultured using a gas pack (“Anaeropack”, manufactured by Mitsubishi Gas Chemical Company, Inc.), under anaerobic conditions at 37° C. for 2 days to renature the test strain. Each strain was inoculated in 5 mL GAM bouillon liquid medium, and precultured in the same manner as above under an anaerobic condition at 37° C. for 18 hr.
(§3) The turbidity (OD600) of each culture medium was measured at wavelength 600 nm on completion of the preculture. The preculture medium was seeded in 1 mL of main test liquid medium such that the OD600 value at the time of start of the culture was 0.010, the cells were cultured under anaerobic conditions at 37° C. for 24 hr in the same manner as above, and OD600 of the culture medium was measured on completion of the culture. The liquid medium for the test was prepared by adding LNT or LNnT to the GAM bouillon liquid medium at a final concentration of 0.5 (w/v) %. In addition, GAM bouillon liquid medium free of both oligosaccharides LNT, LNnT was used as a control. To evaluate the growth-promoting effect (prebiotic effect) of LNT and LNnT, the relative value of the oligosaccharide (LNT or LNnT) addition plot, when the measurement value OD600 of the oligosaccharide non-addition plot (control) was 1, is shown in FIG. 2.

[2] = system: Bifidobacterium longum subsp. Longum 7054 strain; settings: B. longum subsp. Longum 7054, 0.5 (w/v) % oligosaccharide, 37° C.
Procedure: as §1, §2, §3

[3] = system: Bifidobacterium longum subsp. Longum 1217 strain; settings: B. longum subsp. Longum 1217, 0.5 (w/v) % oligosaccharide, 37° C.
Procedure: as §1, §2, §3

Measured: prebiotic effect (OD600 of oligosaccharide addition test plot/OD600 of control plot)

4-O-[3-[2-(acetylamino)-2-deoxy-3-O-(β-D-galactopyranosyl)-β-D-glucopyranosyl]-β-D-galactopyranosyl]-D-glucose [LNT]
≥ 2 fold: all assays above
